Earlier results, collected in patent US20240339215A1, “SYSTEM AND METHOD FOR DRUG SELECTION” (Board of Regents, The University of Texas System, priority 2023, published 2024).
Read-outs that look alike come from different tables or passages of the source.

Tested on: breast cancer cell lines

Measured: synergistic effect of combination

Cc1cc([C@@H](C)Nc2ccccc2C(=O)O)c2nc(N3CCOCC3)cc(=O)n2c1 [AZD6482]
synergistic effects: combined with Linsitinib | combined with MK-1775 (Adavosertib) | combined with Sapitinib | combined with Vorinostat
